How the values were obtained:
[1] = biological target: T1, human CB1 receptor (Homo sapiens, UniProt P21554); test: Binding assay for CB1, radioligand [3H]-CP-55,940 displacement on membranes of transfected SK-N-MC cells; settings: for IC50: human CB1 in SK-N-MC membranes, [3H]-CP-55,940 0.2 nM, calculated by linear regression, read-out: Cannabinoid CB1 Receptor Binding IC50
T1 construct: expressed in transfected cells; host or cells: SK-N-MC cells, stably transfected with pcDNA3 CB-1 (human); semi-purified membrane pellet
Experimental: (§1) Binding Assay for CB1 or CB2 Agonists or Inverse Agonists
(§2) The human CB1 and CB2 receptors were stably expressed in SK-N-MC cells transfected with pcDNA3 CB-1 (human) or pcDNA3 CB-2 (human). The cells were grown in T-180 cell culture flasks under standard cell culture conditions at 37° C. in a 5% CO2 atmosphere. The cells were harvested by trysinization and homogenized in a homogenization buffer (10 mM Tris, 0.2 mM MgCl2, 5 mM KCl, with protease inhibitors aprotinin, leupeptin, pepstatin A and bacitracin) and centrifuged (2000 g). The supernatant was then centrifuged in 2M sucrose (31,300 g) to produce a semi-purified membrane pellet. The pellet was resuspended in homogenization and stored at −80° C.
(§3) On the day of the assay, the pellet was thawed on ice and diluted in assay buffer (50 mM Tris-HCl, 5 mM MgCl2, 2.5 mM EDTA, 0.5 mg/mL fatty acid free bovine serum albumin, pH 7.5). The diluted membrane pellet was added with buffer, either a test compound or vehicle standard and a the radioligand [H]^3+-CP-55,940 (0.2 nM) to the wells of a 96-well polypropylene plate. Non-specific binding was measured in wells containing WIN 55,212 (10 uM). The plate was covered and incubated for 90 minutes at 30° C. The contents were then aspirated onto a Packard Unifilter GF/C filter bottom plate prewet with 0.5% polyethyleneimine. The wells of the polypropylene plate were rinsed and aspirated seven times with a 0.9% saline-0.5% Tween 20 solution. The Unifilter plate was dried, a scintillation cocktail was added to each well and the counts representing binding were quantitated in a TopCount scintillation counter.
(§4) For compounds tested, an IC50 binding value was obtained from percent inhibition studies in which various test concentrations were used. The binding value (in μM) was calculated by linear regression.
(§5) For compounds without an IC50 binding value, the percent inhibition (%) was obtained at a test concentration of 0.2 μM.

[2] = biological target: T2, human CB2 receptor (Homo sapiens, UniProt P34972); test: Binding assay for CB2, radioligand [3H]-CP-55,940 displacement on membranes of transfected SK-N-MC cells; settings: test concentration of 0.2 μM; human CB2 in SK-N-MC membranes; read-out: Cannabinoid CB2 Receptor Binding Inhibition (%)
T2 construct: expressed in transfected cells; host or cells: SK-N-MC cells, stably transfected with pcDNA3 CB-2 (human); semi-purified membrane pellet
Experimental: as §1, §2, §3, §4, §5

T1 sequence (P21554 whole entry): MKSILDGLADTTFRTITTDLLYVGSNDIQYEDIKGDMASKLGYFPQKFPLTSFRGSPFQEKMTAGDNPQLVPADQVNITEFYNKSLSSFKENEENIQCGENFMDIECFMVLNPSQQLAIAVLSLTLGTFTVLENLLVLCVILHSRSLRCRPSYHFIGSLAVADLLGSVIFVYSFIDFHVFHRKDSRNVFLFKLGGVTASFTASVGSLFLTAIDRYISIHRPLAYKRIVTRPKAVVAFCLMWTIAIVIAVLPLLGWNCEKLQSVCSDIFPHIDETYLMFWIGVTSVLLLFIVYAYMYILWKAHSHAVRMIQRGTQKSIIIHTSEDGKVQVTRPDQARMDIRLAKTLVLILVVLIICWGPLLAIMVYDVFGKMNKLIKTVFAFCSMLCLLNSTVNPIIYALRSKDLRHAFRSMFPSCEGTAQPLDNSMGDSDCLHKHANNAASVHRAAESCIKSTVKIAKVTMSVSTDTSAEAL
T2 sequence (P34972 whole entry): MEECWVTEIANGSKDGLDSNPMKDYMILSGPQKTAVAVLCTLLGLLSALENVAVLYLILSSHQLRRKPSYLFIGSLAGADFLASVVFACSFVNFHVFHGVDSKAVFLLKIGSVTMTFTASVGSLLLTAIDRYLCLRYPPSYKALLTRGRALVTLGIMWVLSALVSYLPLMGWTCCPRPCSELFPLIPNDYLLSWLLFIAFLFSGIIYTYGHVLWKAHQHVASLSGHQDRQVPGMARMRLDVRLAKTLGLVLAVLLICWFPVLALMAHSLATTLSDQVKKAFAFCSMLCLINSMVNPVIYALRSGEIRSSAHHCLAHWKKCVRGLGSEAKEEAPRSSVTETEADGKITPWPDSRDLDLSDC

SMILES | IC50 [1] | inhibition at 0.2 µM [2] | inhibition at 0.2 µM ([1]; test concentration of 0.2 μM, for compounds without an IC50 binding value, read-out: Cannabinoid CB1 Receptor Binding percent inhibition)
C[C@@H](NC(=O)c1nn(-c2ccc(Cl)cc2Cl)c2c1CCN(C(=O)OC(C)(C)C)/C2=C/c1ccc(F)cc1)c1ccccc1 [Cpd 1, (7E)-1-(2,4-dichloro-phenyl)-7-(4-fluoro-benzylidene)-3-[(1R)-1-phenyl-ethylcarbamoyl]-1,4,5,7-tetrahydro-pyrazolo[3,4-c]pyridine-6-carboxylic acid tert-butyl ester] | 10 nM | 35% | –
CC(NC(=O)c1nn(-c2ccc(Cl)cc2Cl)c2c1CCN(C(=O)OC(C)(C)C)/C2=C/c1ccc(F)cc1)c1ccccn1 (stereo not shown) [Cpd 2, (7E)-1-(2,4-dichloro-phenyl)-7-(4-fluoro-benzylidene)-3-(1-pyridin-2-yl-ethylcarbamoyl)-1,4,5,7-tetrahydro-pyrazolo[3,4-c]pyridine-6-carboxylic acid tert-butyl ester] | 48 nM | 13% | –
CC(C)(C)OC(=O)N1CCc2c(C(=O)NN3CCCCC3)nn(-c3ccc(Cl)cc3Cl)c2/C1=C\c1ccc(F)cc1 [Cpd 3, (7E)-1-(2,4-dichloro-phenyl)-7-(4-fluoro-benzylidene)-3-(piperidin-1-ylcarbamoyl)-1,4,5,7-tetrahydro-pyrazolo[3,4-c]pyridine-6-carboxylic acid tert-butyl ester] | 12 nM | 13% | –
CC(C)(C)OC(=O)N1CCc2c(C(=O)N3CCCCC3)nn(-c3ccc(Cl)cc3Cl)c2/C1=C\c1ccc(F)cc1 [Cpd 4, (7E)-1-(2,4-dichloro-phenyl)-7-(4-fluoro-benzylidene)-3-(piperidine-1-carbonyl)-1,4,5,7-tetrahydro-pyrazolo[3,4-c]pyridine-6-carboxylic acid tert-butyl ester] | – | 18% | 39%
COC(=O)N1CCc2c(C(=O)NC(C)c3ccccn3)nn(-c3ccc(Cl)cc3Cl)c2/C1=C\c1ccc(F)cc1 (stereo not shown) [Cpd 5, (7E)-1-(2,4-dichloro-phenyl)-7-(4-fluoro-benzylidene)-3-(1-pyridin-2-yl-ethylcarbamoyl)-1,4,5,7-tetrahydro-pyrazolo[3,4-c]pyridine-6-carboxylic acid methyl ester] | 33 nM | 17% | –
